Literature values as cited in patent publication US20230150977A1, “PYRIDAZINONE COMPOUNDS FOR THE TREATMENT OF NEUROMUSCULAR DISEASES” (Edgewise Therapeutics, Inc., priority 2020, published 2023).

Test system: embryos from zebrafish model of DMD
Details: Li and Arner, PLoSONE, 2015; cited from earlier work

Question: Which “protection of muscles from pathological muscle derangement” value does the source give for `Cc1ccc(S(=O)(=O)NCc2ccccc2)cc1` [BTS, N-benzyl-p-tolyl-sulfonamide] here?
Answer: protect muscles from pathological muscle derangement
